# Results from article PMC8557866, “Novel Small Molecule Growth Inhibitor Affecting Bacterial Outer Membrane Reduces Extraintestinal Pathogenic Escherichia coli (ExPEC) Infection in Avian Model” (Microbiology Spectrum, 2021).
# Read-outs that look alike come from different tables or passages of the source.
# Experiments:
# APEC serotype O78 = system: APEC serotype O78
# Method: The efficacy of GIs was assessed using commercial broiler chickens (n = 6/group). […] GI compounds (ChemBridge, San Diego, CA) dissolved in dimethyl sulfoxide (DMSO) were administered orally using a syringe, twice a day, from day 4 (1 day before APEC infection) to day 8 (3 days postinfection [dpi]). The dose of each GI is described in Table S1. […] Chickens that were infected and vehicle-treated (positive control [PC]) and noninfected and nontreated (negative control [NC]) were included as controls. On day 5, chickens were infected subcutaneously (s.c.) with rifampin-resistant (Rif^r) APEC serotype O78 ([18]) (1 × 10^7 CFU/chicken). […] To prepare the APEC inoculum for infection, Rif^r APEC O78 (50 μg/ml rifampin) was grown to logarithmic phase in LB medium, washed twice with phosphate-buffered saline (PBS), and adjusted to an optical density at 600 nm (OD600) of 0.1 (5 × 10^7 CFU/ml). The clinical signs and mortality were recorded until 7 dpi. Chickens that died during this period were necropsied on the same day, lesions in internal organs (liver, heart, lung, and air sacs) were scored as described previously ([63], [71]), and the APEC loads were quantified in internal organs (liver, heart, lung, and kidney) by plating the tissue homogenates on MacConkey agar plates containing 50 μg/ml rifampin ([18]). At 7 dpi (day 12), all live birds were euthanized, lesions were scored, and the APEC loads in internal organs were quantified as described above. The body weight of chickens was measured before GI treatment (day 3) and at the day of necropsy (day 12).
# APEC O78 = details: for Mortality reduction compared to PC group: 7 days, PC mortality 60%; for Cumulative lesion score: PC 8.8; for Survival of chickens: P < 0.05, log-rank test
# Method: Prior to selection of these doses, we conducted a preliminary study using 20-mg/liter, 200-mg/liter, and 500-mg/liter doses (doses similar to those of antibiotics currently used in the poultry industry). […] The experiment was conducted using commercial broiler chickens (n = 11/group) as described above following procedures described in Fig. S1A. […] The amount of drinking water was adjusted daily based on the age and requirement of chickens (https://www.thepoultrysite.com/articles/broiler-water-consumption). The clinical signs and mortality, lesion scores, and APEC loads were determined as described above.
# LptE = assay: LptD/E immunoblot analysis; type: cell-based, Escherichia coli; details: vs untreated APEC
# Method: For immunoblot analysis, total membrane proteins (25 μg) resolved by SDS-PAGE under nonreducing (in the absence of β-mercaptoethanol) conditions ([37]) as described above were electrotransferred onto an Immun-Blot polyvinylidene difluoride (PVDF) membrane (Bio-Rad) and probed for LptD or LptE using anti-LptD (1:20,000) and anti-LptE (1:30,000) polyclonal rabbit antibodies (GenScript) and goat anti-rabbit IgG horseradish peroxidase (HRP)-conjugated secondary antibody (Sigma-Aldrich). Anti-LptD and anti-LptE antibodies were generated at GenScript using keyhole limpet hemocyanin (KLH)-conjugated peptides as the antigens (LptD epitope, […], and LptE epitope, […]). The epitopes were selected using the OptimumAntigen design tool (GenScript). The transferred membrane was developed with Clarity Western ECL substrate (Bio-Rad) and visualized in a FluorChem Q imager (ProteinSimple).
# APEC [1] = assay: LPS analysis in outer membrane of APEC; type: cell-based, Escherichia coli; details: vs untreated APEC; total carbohydrate assay P < 0.0001
# Method: Extracted LPS (normalized based on the OD600 before extraction) was separated on a 4-to-20% gradient SDS-PAGE gel and stained with Coomassie blue R-250 to visualize the LPS levels ([83]). In addition, LPS was also quantitated using a total carbohydrate assay kit (Cell Biolabs, Inc., San Diego, CA) following the manufacturer’s protocol. Two independent experiments with six replicates in each experiment were performed.
# APEC [2] = details: 10^9 CFU with 2× MBC or 15 passages at 0.75× MIC; cited from earlier work
# [3] = 20 mg/L in drinking water, vs PC
# [4] = 20 mg/liter in drinking water, vs PC
# [5] = 40 mg/L in drinking water, vs PC
# [6] = 40 mg/liter in drinking water, vs PC
# [7] = 60 mg/L in drinking water, vs PC
# [8] = 60 mg/liter in drinking water, vs PC
smiles,measurement,setting,value
COc1ccc(CNCc2cccc(C(F)(F)F)c2)cc1OCC(O)CN1CCCC1 (stereo not shown) [GI-7],"Mean APEC load, Heart","APEC serotype O78; efficacy trial, oral",2.7 Log CFU/g tissues
same,"Mean APEC load, Kidney","APEC serotype O78; efficacy trial, oral",2.3 Log CFU/g tissues
same,"Mean APEC load, Liver","APEC serotype O78; efficacy trial, oral",2.1 Log CFU/g tissues
same,"Mean APEC load, Lung","APEC serotype O78; efficacy trial, oral",2.7 Log CFU/g tissues
same,Mean lesion score in Air sacs,"APEC serotype O78; efficacy trial, oral",0.7
same,Mean lesion score in Heart,"APEC serotype O78; efficacy trial, oral",0.8
same,Mean lesion score in Liver,"APEC serotype O78; efficacy trial, oral",0.7
same,Mean lesion score in Lung,"APEC serotype O78; efficacy trial, oral",0.2
same,Survival of chickens,"APEC serotype O78; efficacy trial, oral, P ≤ 0.1, log rank test",prolonged the survival
same,Cumulative lesion score,"APEC serotype O78; efficacy trial, oral, PC 6.2",2.3
same,Mortality reduction compared to PC group,"APEC serotype O78; efficacy trial, oral, PC mortality 58.3%",41.7%
same,"% reduction in severity, Air sacs lesions","APEC serotype O78; efficacy trial, oral, vs PC",52.9%
same,"% reduction in severity, Heart lesions","APEC serotype O78; efficacy trial, oral, vs PC",60%
same,"% reduction in severity, Liver lesions","APEC serotype O78; efficacy trial, oral, vs PC",60%
same,"% reduction in severity, Lung lesions","APEC serotype O78; efficacy trial, oral, vs PC",83.3%
same,"log reduction in APEC load, Heart","APEC serotype O78; efficacy trial, oral, vs PC",2.3 Log CFU/g tissues
same,"log reduction in APEC load, Kidney","APEC serotype O78; efficacy trial, oral, vs PC",3.2 Log CFU/g tissues
same,"log reduction in APEC load, Liver","APEC serotype O78; efficacy trial, oral, vs PC",2.5 Log CFU/g tissues
same,"log reduction in APEC load, Lung","APEC serotype O78; efficacy trial, oral, vs PC",2.4 Log CFU/g tissues
same,BWG (body weight gain),APEC serotype O78; in vivo,261.3±20.4
same,"Mean APEC load, Heart",APEC O78; 20 mg/L in drinking water,6.7 Log CFU/g tissues
same,"Mean APEC load, Kidney",APEC O78; 20 mg/L in drinking water,5.9 Log CFU/g tissues
same,"Mean APEC load, Liver",APEC O78; 20 mg/L in drinking water,6.0 Log CFU/g tissues
same,"Mean APEC load, Lung",APEC O78; 20 mg/L in drinking water,6.3 Log CFU/g tissues
same,"log reduction in APEC load, Heart",APEC O78; [3],-0.2 Log CFU/g tissues
same,"log reduction in APEC load, Kidney",APEC O78; [3],0.2 Log CFU/g tissues
same,"log reduction in APEC load, Liver",APEC O78; [3],-0.1 Log CFU/g tissues
same,"log reduction in APEC load, Lung",APEC O78; [3],-0.4 Log CFU/g tissues
same,Mean lesion score in Air sacs,APEC O78; 20 mg/liter in drinking water,2.3
same,Mean lesion score in Heart,APEC O78; 20 mg/liter in drinking water,2.7
same,Mean lesion score in Liver,APEC O78; 20 mg/liter in drinking water,2
same,Mean lesion score in Lung,APEC O78; 20 mg/liter in drinking water,1.8
same,Mortality reduction compared to PC group,APEC O78; 20 mg/liter in drinking water,10%
same,Cumulative lesion score,APEC O78; 20 mg/liter in drinking water,8.8
same,"% reduction in severity, Air sacs lesions",APEC O78; [4],1.4%
same,"% reduction in severity, Heart lesions",APEC O78; [4],−9.5%
same,"% reduction in severity, Liver lesions",APEC O78; [4],0%
same,"% reduction in severity, Lung lesions",APEC O78; [4],10%
same,"Mean APEC load, Heart",APEC O78; 40 mg/L in drinking water,4.4 Log CFU/g tissues
same,"Mean APEC load, Kidney",APEC O78; 40 mg/L in drinking water,4.2 Log CFU/g tissues
same,"Mean APEC load, Liver",APEC O78; 40 mg/L in drinking water,3.9 Log CFU/g tissues
same,"Mean APEC load, Lung",APEC O78; 40 mg/L in drinking water,4.0 Log CFU/g tissues
same,"log reduction in APEC load, Heart",APEC O78; [5],2.0 Log CFU/g tissues
same,"log reduction in APEC load, Kidney",APEC O78; [5],1.9 Log CFU/g tissues
same,"log reduction in APEC load, Liver",APEC O78; [5],2.0 Log CFU/g tissues
same,"log reduction in APEC load, Lung",APEC O78; [5],2.0 Log CFU/g tissues
same,Reduction of severity of APEC lesions in internal organs,"APEC O78; 40 mg/liter and 60 mg/liter in drinking water, vs PC",up to 36.3%
same,Mean lesion score in Heart,APEC O78; 40 mg/liter in drinking water,2.6
same,Mean lesion score in Liver,APEC O78; 40 mg/liter in drinking water,2
same,Mortality reduction compared to PC group,APEC O78; 40 mg/liter in drinking water,50%
same,Survival of chickens,APEC O78; 40 mg/liter in drinking water,prolonged the survival
same,Cumulative lesion score,APEC O78; 40 mg/liter in drinking water,7.7
same,"% reduction in severity, Heart lesions",APEC O78; [6],−5.4%
same,"% reduction in severity, Liver lesions",APEC O78; [6],0%
same,"% reduction in severity, Lung lesions",APEC O78; [6],30%
same,"Mean APEC load, Heart",APEC O78; 60 mg/L in drinking water,4.0 Log CFU/g tissues
same,"Mean APEC load, Kidney",APEC O78; 60 mg/L in drinking water,3.6 Log CFU/g tissues
same,"Mean APEC load, Liver",APEC O78; 60 mg/L in drinking water,3.5 Log CFU/g tissues
same,"Mean APEC load, Lung",APEC O78; 60 mg/L in drinking water,4.4 Log CFU/g tissues
same,"log reduction in APEC load, Heart",APEC O78; [7],2.4 Log CFU/g tissues
same,"log reduction in APEC load, Kidney",APEC O78; [7],2.5 Log CFU/g tissues
same,"log reduction in APEC load, Liver",APEC O78; [7],2.4 Log CFU/g tissues
same,"log reduction in APEC load, Lung",APEC O78; [7],1.6 Log CFU/g tissues
same,Mean lesion score in Heart,APEC O78; 60 mg/liter in drinking water,2.1
same,Mean lesion score in Lung,APEC O78; 60 mg/liter in drinking water,1.4
same,Mortality reduction compared to PC group,APEC O78; 60 mg/liter in drinking water,50.9%
same,Survival of chickens,APEC O78; 60 mg/liter in drinking water,prolonged the survival
same,Cumulative lesion score,APEC O78; 60 mg/liter in drinking water,6.6
same,"% reduction in severity, Air sacs lesions",APEC O78; [8],33.8%
same,"% reduction in severity, Heart lesions",APEC O78; [8],15.2%
same,"% reduction in severity, Liver lesions",APEC O78; [8],13.6%
same,"% reduction in severity, Lung lesions",APEC O78; [8],36.3%
same,Anti-APEC effect compared to treatment at 60 mg/liter,"APEC O78; 80 mg/liter, follow-up study, data not shown",did not result in a better anti-APEC effect
same,LptE level (immunoblot),LptE,decreased the LptE level
same,LPS level in OM of APEC,APEC [1],lower level of LPS
same,Resistance in vitro,APEC [2],no resistance
